In one series the target is T1, DNA gyrase from E. coli (Escherichia coli, UniProt P0AES6).
T1 construct: purchased Inspiralis
As to the kind of experiment: supercoiling HTS plate assay. The format is biochemical. An outline of the steps: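 E. coli gyrase tested by supercoiling and topo IV by relaxation in high-throughput plate format. IC50 from seven inhibitor concentrations; mean of three independent measurements.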

For series [1], the system named is 3 sensitive and 7 MDR A. baumannii clinical isolates. In words: MIC, Hungarian clinical isolates and controls (384-well). The format is cell-based.
A further series has as its system P. aeruginosa ATCC 27853. In words: IHMA QC MIC. The format is cell-based.
A further series concerns A. baumannii ATCC 17978. In words: IHMA QC MIC. The series is classed as cell-based. On the procedure:
(§1) The panel of Hungarian clinical isolates and controls measured following the same method as detailed above, and albeit measurements were carried out in 384-well microtiter plates (Corning Inc.).

The next series relates to E. coli ATCC 35218. In words: IHMA QC MIC. The format is cell-based. The protocol: as §1
The subject of another series is E. coli ATCC 25922. As to the kind of experiment: IHMA QC MIC. The series is classed as cell-based.
The next series can be described thus: physchem. The format is physicochemical. The protocol: For the PBS, 2.38 g of disodium hydrogen phosphate dodecahydrate, 0.19 g of potassium dihydrogen phosphate, and 8.0 g of sodium chloride were added to distilled water (900 mL), and the solution was mixed overnight. […] Samples were prepared by weighing the exact mass of solid compounds (about 1 mg), and then, the appropriate volume of PBS was added to reach the final concentration of ∼1 mg/mL. […] The supernatant was diluted 3× with a 1:1 mixture of 0.1% TFA in water and acetonitrile and analyzed by HPLC. For the 7-point calibration curves, concentrated stock solutions of the compounds were prepared at concentrations of 10 and 0.5 mM in DMSO, which were diluted with a 1:1 mixture of 0.1% TFA in water and acetonitrile to the desired final concentrations and analyzed by HPLC. Results are given in μM as an average value of two independent experiments. For details on calibration curves, concentrations, analytical method, and HPLC method, see the Supporting Information.
Thermodynamic solubility assay
To determine thermodynamic solubility of compounds in PBS, calibration curves for the assayed compounds were prepared using seven concentrations. First, DMSO stock solutions of compounds at 10 mM and 0.5 mM concentration were prepared and then diluted (0.1% TFA in […]
Quality control (QC) samples were diluted from stock solutions with a 1:1 mixture of 0.1% TFA in water and acetonitrile to final concentrations of 60 µM, 20 µM, and 2 µM (6 µM, 2 µM, and 0.2 µM for 7f or 0.6 µM, 0.2 µM, and 0.02 µM for 7g).
Analytical reversed-phase UHPLC analyses were performed on Thermo Scientific Dionex UltiMate 3000 modular system (Thermo Fisher Scientific Inc., MA, USA). Waters Acquity UPLC® HSS C18 SB column (2.1 × 50 mm, 1.8 μm; Waters, Milford, MA, USA) was used at T […]
Mobile phase consisted of 0.1% trifluoroacetic acid in ultrapure water (solvent A) and acetonitrile […]
The obtained data was processed in Chromeleon CDS software (Thermo Fisher Scientific Inc., […]
Analytical method was tested for accuracy, precision and linear rang. Accuracy was […]
(or 2 or 0.2) µM and 60 (or 6 or 0.6) µM) to their true values and expressed in (%). Values were […]
Method repeatability was determined by calculating the RSD from the separately prepared and analysed quality control samples (n = 3). […] Linearity of the […]
method (1 (or 0.1 or 0.01) µM to 100 (or 10 or 1) µM) was evaluated from the 7-point calibration […]
Solubility was determined in two independent experiments and results were calculated in […]

Another series can be described thus: in vitro. The format is in vitro ADME, mouse. The conditions noted are these: male; for recovery at 4 h, 5 μM: plasma protein binding assay. The protocol:
The PPB studies were performed by Selvita d.o.o. (Zagreb, Croatia) in mouse plasma (CD-1 male, pooled, commercially obtained from BioIVT) via equilibrium dialysis. Compounds were assayed at 5 μM (0.5% DMSO) in two replicates, and incubation time was 4 h at 37 °C. Samples were taken at 0 min and 4 h. Aliquots from both buffer and plasma compartment matrix were matched and mixed with 6 volumes of STOP solution (acetonitrile/methanol (2:1) + internal standard – diclofenac) and analyzed by LC–MS/MS. Assay controls were caffeine (low), verapamil (moderate binding), and nicardipine (very high binding), and protein contamination was checked.

[2] abbreviates: Pseudomonas aeruginosa, ATCC27853, QC strain P. aeruginosa ATCC 27853, test date 2021-11-11.
Setting [3] is: Pseudomonas aeruginosa, ATCC27853, QC strain P. aeruginosa ATCC 27853, test date 2021-11-26.
The mark [4] stands for this setting: Escherichia coli, ATCC35218, read-out: MIC (QC, repeated tests).
[5] abbreviates: QC strain E. coli ATCC 25922, test date 2021-11-26.
[6] abbreviates: pH 7.4, thermodynamic solubility (pH = 7.4).
Where [7] appears, read: Escherichia coli, ATCC35218; read-out: MIC (QC, repeated tests).
Where [8] appears, read: Escherichia coli, ATCC25922; read-out: MIC (QC, repeated tests).

≈ marks a conversion by molar mass, not a printed value. Where “and” joins values, the source holds several entries; their conditions need not be identical. Equal values may be shown once. Read-outs that look alike come from different tables or passages of the source. Some results are limits rather than exact numbers.

For the compound `Cc1[nH]c(C(=O)Nc2nc3c(N4CCOCC4)cc(C(=O)O)cc3s2)c(Cl)c1Cl` [7a, 2-(3,4-Dichloro-5-methyl-1H-pyrrole-2-carboxamido)-4-morpholinobenzo[d]thiazole-6-carboxylic Acid], on DNA gyrase from E. coli (read-out: IC50), the IC50 (commonly the concentration that gives 50% inhibition) is under 10 nM. In addition, the “Cumulative % at MIC” value in series [1] was 80% and 100%. Also, the minimum inhibitory concentration (MIC) (in general, the least concentration at which growth counts as inhibited) in the series with P. aeruginosa ATCC 27853 (setting [2]) is 64 µg/mL (≈ 141 µM); with P. aeruginosa ATCC 27853 (setting [3]), 16 µg/mL (≈ 35.1 µM); with A. baumannii ATCC 17978 (Acinetobacter baumannii, ATCC17978, read-out: MIC (QC, repeated tests)), 8 µg/mL (≈ 17.6 µM); in the series with E. coli ATCC 35218 (setting [4]), 4 µg/mL (≈ 8.78 µM); against E. coli ATCC 25922 (Escherichia coli, ATCC25922), 8 µg/mL (≈ 17.6 µM); with E. coli ATCC 25922 (Escherichia coli, ATCC25922, read-out: MIC (QC, repeated tests)), 8 µg/mL (≈ 17.6 µM). For the same compound, the MIC against E. coli ATCC 25922 (setting [5]) was determined as 8 µg/mL (≈ 17.6 µM). Also, the thermodynamic solubility (as a rule, solubility found after equilibrating the solid with the medium) was 100 µM (≈ 45.5 µg/mL) in the series “physchem” (pH 7.4, PBS pH 7.4, read-out: thermodynamic solubility, Experiment 1); 96.6 µM (≈ 44 µg/mL) in “physchem” (pH 7.4, PBS pH 7.4, read-out: thermodynamic solubility, Experiment 2); 98.3 µM (≈ 44.8 µg/mL) in “physchem” (setting [6]). The thermodynamic solubility at 48 h in the series “physchem” (setting [6]) is 98 µM (≈ 44.6 µg/mL). In addition, the recovery at 4 h, 5 μM in the series “in vitro” (CD-1, mouse) is 81.5%. Also, in “in vitro” (CD-1, mouse plasma, 5 µM, 4 h, read-out: fu, fraction unbound), the fraction unbound (commonly the share of the substance not bound to proteins or other matrix) at 4 h, 5 μM is 0.018.
Regarding `Cc1[nH]c(C(=O)Nc2nc3c(N4[C@@H]5CC[C@H]4COC5)cc(C(=O)O)cc3s2)c(Cl)c1Cl` [7h, 4-((1R,5S)-3-Oxa-8-azabicyclo[3.2.1]octan-8-yl)-2-(3,4-dichloro-5-methyl-1H-pyrrole-2-carboxamido)benzo[d]thiazole-6-carboxylic Acid], the IC50 against DNA gyrase from E. coli (IC50 [nM] E. coli DNA gyrase) was 16 ± 6 nM; on DNA gyrase from E. coli (read-out: IC50), 13 ± 1 nM. Further, the “Cumulative % at MIC” value in series [1] is listed as 100%. Besides, the “MIC (QC, repeated tests)” value stood at 4 µg/mL (≈ 8.31 µM) in the series on P. aeruginosa ATCC 27853 and 1 µg/mL (≈ 2.08 µM) in the series on A. baumannii ATCC 17978. In addition, the MIC in the series on P. aeruginosa ATCC 27853 (setting [2]) was 16 µg/mL (≈ 33.2 µM); in the series with P. aeruginosa ATCC 27853 (setting [3]), 8 µg/mL (≈ 16.6 µM); with P. aeruginosa ATCC 27853 (Pseudomonas aeruginosa, ATCC27853, read-out: MIC (QC, repeated tests)), 8 µg/mL (≈ 16.6 µM); in the series with E. coli ATCC 35218 (setting [4]), 2 µg/mL (≈ 4.15 µM); in the series with E. coli ATCC 25922 (setting [5]), 4 µg/mL (≈ 8.31 µM). For the same compound, the thermodynamic solubility at 24 h in the series “physchem” (setting [6]) was determined as 3.8 µM (≈ 1.83 µg/mL); in the series “physchem” (pH 7.4, thermodynamic solubility, Experiment 1) it was 3.83 µM (≈ 1.84 µg/mL); in “physchem” (pH 7.4, thermodynamic solubility, Experiment 2), 3.8 µM (≈ 1.83 µg/mL). The compound also showed an unbound share (fraction unbound) at 4 h, 5 μM in “in vitro” (CD-1, mouse, plasma, fu, fraction unbound) of 0.009. For the same compound, the recovery at 4 h, 5 μM in the series “in vitro” (CD-1, mouse) came to 89%.
On to `CO/N=C(\C(=O)N[C@@H]1C(=O)N2C(C(=O)[O-])=C(C[N+]3(C)CCCC3)CS[C@H]12)c1csc(N)n1` [Cefepime, cefepime], for which the “Cumulative % at MIC” value in series [1] (n=10, MIC […] µg/mL) came to 20%. Moreover, the MIC in the series on E. coli ATCC 35218 (setting [7]) and in the series with E. coli ATCC 25922 (setting [8]) was at most 0.25 µg/mL each time.
As to `C[C@@H](O)[C@H]1C(=O)N2C(C(=O)O)=C(SCCNC=N)C[C@H]12` [Imipenem, imipenem], the “Cumulative % at MIC” value is recorded as 20% in series [1] (n=10, MIC 0.5 µg/mL); 30% in series [1] (n=10, MIC 1 µg/mL); 60% in series [1] (n=10, MIC 64 µg/mL); 80% in series [1] (n=10, MIC 128 µg/mL); 100% in series [1] (n=10, MIC 256 µg/mL). For the same compound, in the series with P. aeruginosa ATCC 27853, the “MIC (QC, repeated tests)” value turned out to be 1 µg/mL (≈ 3.34 µM). In addition, the MIC with P. aeruginosa ATCC 27853 (Pseudomonas aeruginosa, ATCC27853, QC strain P. aeruginosa ATCC 27853, test date 2021-11-11; read-out: MIC) is 2 µg/mL (≈ 6.68 µM); in the series with P. aeruginosa ATCC 27853 (Pseudomonas aeruginosa, ATCC27853, QC strain P. aeruginosa ATCC 27853, test date 2021-11-26; read-out: MIC), 2 µg/mL (≈ 6.68 µM); with P. aeruginosa ATCC 27853 (Pseudomonas aeruginosa, ATCC27853; read-out: MIC (QC, repeated tests)), 2 µg/mL (≈ 6.68 µM); in the series with A. baumannii ATCC 17978 (Acinetobacter baumannii, ATCC17978; read-out: MIC (QC, repeated tests)), at most 0.25 µg/mL; in the series with E. coli ATCC 35218 (setting [7]), at most 0.25 µg/mL; in the series with E. coli ATCC 25922 (Escherichia coli, ATCC25922, QC strain E. coli ATCC 25922, test date 2021-11-26; read-out: MIC), 0.12 µg/mL (≈ 0.401 µM). Besides, the MIC in the series on E. coli ATCC 25922 (setting [8]) is at most 0.25 µg/mL.
